Type in all cases: physicochemical
Series [1] in a line: Complexing ability test of Dimethylglucamine vs. Aminomethylpropanol. To be noted: for Result: Cu^2+ solution 0,2 mmol/L, each chelant at 0.6 mmol/L, observed color and precipitate. The protocol:
The relative complexing ability of the chelant Dimethylglucamine is evaluated vs. Aminomethylpropanol by observing color changes and precipitate formation. In particular Aminomethylpropanol was chosen since in the previous test c) it was shown that Aminomethylpropanol makes complex with Copper that differs in color of Copper complex with Dimethylglucamine. Therefore, it is possible to evaluate the strength of complexation of Aminomethylpropanol and Dimethylglucamine when both chelants are present in solution of Copper^2+ ions by observing the color of solution. To Cu^2+ solutions (c = 0,2 mmol/L), solutions of chelants are added: • Aminomethylpropanol at 0,6 mmol/L • Dimethylglucamine at 0,6 mmol/L • Aminomethylpropanol at 0,6 mmol/L + Dimethylglucamine 0,6 mmol/L

Series [2] in a line: Confirmation of complex formation with single chelants, Cu2+ ions.
A short description of series [3]: Confirmation of complex formation with single chelants, Fe3+ ions.
Series [4] can be described thus: Complexing ability test vs. EDTA (color changes and precipitate formation). To be noted: for Result: Fe^3+ solution 0,2 mmol/L, observed color and precipitate; for chelating strength for Iron^3+ ions relative to EDTA: both EDTA and chelant present, judged from the colored complex formed. As for the experimental part: The relative complexing ability of the chelant is evaluated vs. EDTA by observing color changes and precipitate formation.
To Fe^3+ and Cu^2+ solutions (c = 0,2 mmol/L), solutions of chelants are added: • Na4EDTA at 0,4 mmol/L • Na4EDTA at 2 mmol/L • Only chelant (Dimethylglucamine or Piroctone Olamine) at 0,6 mmol/L • Chelant (Dimethylglucamine or Piroctone Olamine) at 0,6 mmol/L + Na4EDTA 0,4 mmol/L • Chelant (Dimethylglucamine or Piroctone Olamine) at 0,6 mmol/L + Na4EDTA 2 mmol/L

The mark [5] stands for this setting: Cu^2+ solution 0,2 mmol/L with single chelant.
Setting [6] is: Cu^2+ solution 0,2 mmol/L, single chelant added at c=0,2 mmol/L, observed color and precipitate.
[7] abbreviates: Fe^3+ solution 0,2 mmol/L with single chelant.
Setting [8] is: Fe^3+ solution 0,2 mmol/L, single chelant added at c=0,2 mmol/L, observed color and precipitate.

Each structure is given as a SMILES string.

As for `CC(C)(N)CO` [Aminomethylpropanol], the Result entry is on record as “Clear solution with distinct brown precipitate” in series [1], “Clear solution with distinct brown precipitate” in series [2] (setting [6]) and “Clear solution with distinct orange precipitate” in series [3] (setting [8]). Further, the pH in series [2] (setting [5]) is given as 9.2; in series [3] (setting [7]), 4.0.

Regarding `CN(C)C[C@H](O)[C@@H](O)[C@H](O)[C@H](O)CO` [Dimethylglucamine, N,N-dimethylglucamine], the Result entry was “Clear solution with distinct orange precipitate” in series [4] (only chelant at 0,6 mmol/L); “Clear light blue solution” in series [1]; “Clear, light blue solution” in series [2] (setting [6]); “Clear solution with distinct orange precipitate” in series [3] (setting [8]). Also, the “chelating strength for Iron^3+ ions relative to EDTA” value in series [4] was “stronger chelating agent than EDTA”. Moreover, the “complex formed in presence of Aminomethylpropanol and Cu^2+ ions” value in series [1] (both chelants present at 0,6 mmol/L) is “distinct blue complex of Dimethylglucamine is formed instead of brown complex of Aminomethylpropanol and Cu^2+ ions”. Moreover, the “complexes formed with Copper^2+ ions” value in series [2] is “blue complexes”. Also, the pH in series [2] (setting [5]) was 6.5; in series [3] (setting [7]), 3.4. Moreover, the “complexes formed with Iron^3+ ions” value in series [3] is “distinct orange complexes”.

As for `O=C(O)CN(CCN(CC(=O)O)CC(=O)O)CC(=O)O` [EDTA, ethylenediaminetetraacetic acid], the Result entry is reported as “Clear, very slightly yellowish solution” in series [4] (EDTA 0.4 mmol/L, alone or with chelant at 0,6 mmol/L); “Clear, very slightly yellowish solution” in series [4] (EDTA 2 mmol/L, alone or with chelant at 0,6 mmol/L); “Clear, light blue solution” in series [2]; “Clear, very slightly yellowish solution” in series [3]. Moreover, the figures for the pH in series [2] and in series [3] were 10.0 and 10.6, respectively.

On to `NCC(=O)O` [Glycine], for which the pH stood at 4.6 in series [2] (setting [5]) and 3.3 in series [3] (setting [7]). In addition, the Result result in series [2] (setting [6]) is “Clear, slightly bluish solution”; in series [3] (setting [8]), “Clear solution with distinct orange precipitate”.

In the case of `Cc1cc(CC(C)CC(C)(C)C)n(O)c(=O)c1.NCCO` (stereo not shown) [Piroctone Olamine], the Result entry is listed as “Turbid yellowish solution with distinct orange precipitate” in series [4] (only chelant at 0,6 mmol/L); “Turbid, light blue solution” in series [2] (setting [6]); “Turbid solution with distinct orange precipitate” in series [3] (setting [8]). In addition, the “chelating strength for Iron^3+ ions relative to EDTA” value in series [4] is “stronger than EDTA”. Also, the pH in series [2] (setting [5]) was found to be 8.3; in series [3] (setting [7]), 3.8.
